Measurements from patent US20240287044A1, “SALT OF SELECTIVE FGFR4 INHIBITOR, AND PREPARATION METHOD THEREFOR AND APPLICATION THEREOF” (ZHEJIANG HISUN PHARMACEUTICAL CO., LTD., priority 2021, published 2024).
Where “and” joins values, the source holds several entries; their conditions need not be identical. Identical values can stand only once. Counter-ions that a name gives are not always drawn.

Legend:
[1] = system: Hep3B human liver carcinoma subcutaneous transplanted tumor; experiment: Subcutaneous transplantation model of Hep3B human liver carcinoma; type: in vivo, BALB/c nude mice; details: for anti-tumor activity (in words): Hep3B model, 50 mg/kg twice a day gavage 10 days
Method: Preparation of administration formulation for gavage administration: sorafenib, free-base compounds as represented by formula (I) and its maleate salts, phosphate salts, hydrochloride salts, mesylate salts, and ethanesulfonate salts were accurately weighed respectively, and an appropriate volume of normal saline was added, and then vortex oscillation was performed until mixed well, and the administration formulation was prepared just before use.
BALB/c nude mice, female, purchased from Jiangsu Jicui Pharmacom Biotechnology Co. Licence No.: SCXK (Su) 2019-0009, Animal Qualification Certificate No.: 202102418.
After arrival, animals were required to be kept in the experimental environment for 7 days before starting the experiment. The experimental animals were kept in intelligent independent ventilation cages (IVC) with constant temperature and humidity. The temperature was maintained at 20-26° C. and the humidity was maintained at 40-70%. Under a light-dark cycle of 10 hours light/14 hours dark, the experimental animals were allowed to free access to food and water. The animals were labeled using ear tag.
Establishment of subcutaneous tumor model of Hep3B cell: 0.2 mL of a cell suspension containing 3.5×10^6 Hep3B cells was inoculated subcutaneously on the right side of the back of female BALB/c nude mice aged over 6 weeks to establish a transplant tumor. The diameter of tumor was measured with a vernier caliper, and tumor volume was calculated using the following formula: tumor volume=0.5×a×b^2, where a and b represented the long and short diameter of the tumor, respectively. The tumor-bearing mice were randomly divided into 9 groups and administered according to the experimental design when the average tumor volume was at a range of 200-250 mm^3. Mice in each treatment group and solvent control group were subjected to orally intragastric administration for 10 days. The tumor volume of mice was measured twice weekly, and the body weight was weighed daily. The curative effect was assessed based on the relative tumor growth inhibition (TGI) rate (%), and safety was evaluated according to the change of body weight and mortality of animals.

[2] = Pharmacokinetics of different salt forms (ICR mice); type: in vivo; details: 75 mg·kg^−1 single gavage, fasted, normal saline, plasma
Method: After vortex oscillation, ultrasonication was carried out. If necessary, shearing and emulsification or grinding could be carried out until well mixed, to obtain an administration formulation with a concentration of 7.5 mg· mL^−1.
(§1) Experimental animals were kept in animal rooms, which were well ventilated and equipped with air conditioning, and the temperature was maintained at 20-25° C., humidity at 40%-70%, and light and dark lighting for 12 hours each, and the experimental animals were allowed to eat and drink freely. After normal feeding for about 5 days, rats with good physical condition could be selected for this experiment after examination by a veterinary. Each rat was marked with a tail number.
(§2) The detailed administration regimen of the ICR mice experiment is seen in Table 5. On the day before the experiment, all ICR mice were fasted overnight (equal to or more than 12 hours). On the day of the experiment, after weighing, the theoretical administration volume for each mouse was calculated according to the following formula. The administration formulation should be prepared on the day of the experiment, and the interval between preparation and administration should not exceed 2 hours. The actual administration amount of each rat and the collection time of the plasma sample should be recorded in detail in the corresponding table. ICR mice were allowed to restore eating 4 hours after administration, and were allowed to drink water freely during the experiment.
Before and 0.25, 0.5, 1, 2, 4, 8, 10, 12 and 24 hours after administration, 0.15 mL blood was collected from fundus venous plexus and placed into anticoagulant tubes containing EDTA-K2.
All whole blood samples were subjected to centrifugation for 10 minutes (5500 rpm), and then the plasma was separated and stored in a refrigerator at −30 to −10° C.

[3] = Pharmacokinetic study on different salt forms (SD rats); type: in vivo; details: 20 mg·kg^−1 single gavage, fasted, 0.5% CMC-Na, plasma
Method: After vortex oscillation, ultrasonication was carried out. If necessary, shearing and emulsification or grinding could be carried out until well mixed, to obtain an administration formulation with a concentration of 2 mg· mL^−1.
as §1
as §2, with “the animal” for “the ICR mice”, “Table 2.” for “Table 5.”, “all SD rats” for “all ICR mice”, “each rat” for “each mouse”, “table. SD rats” for “table. ICR mice”
Before and 0.25, 0.5, 1, 2, 4, 8, 12 and 24 hours after administration, 0.15 mL blood was collected from jugular vein and placed into anticoagulant tubes containing EDTA-K2.
All whole blood samples were subjected to centrifugation for 10 minutes (5500 rpm), and then the plasma was separated and stored in a refrigerator at −30° C. to −10° C.
The corresponding pharmacokinetic parameters were calculated using the […] of Pharsight Phoenix 7.0, and the results are shown in Table 3 below.

[4] = system: hepatocellular carcinoma cells Hep3B; details: in vitro, read-out: IC50 value, inhibitory activity against Hep3B; cited from earlier work
[5] = day 11 after administration, gavage 10 days, 50 mg/kg twice a day (based on formula (I)), sorafenib 30 mg/kg once a day
[6] = day 11 after administration, gavage 10 days, 50 mg/kg twice a day (based on formula (I)), sorafenib 30 mg/kg once a day, listed as sorafenib

SMILES | anti-tumor activity (in words) [1] | tumor volume (x ± S) [1, 5] | AUC0-t [3] [ng·h/mL] | Cmax [3] [ng/mL] | T1/2 [3] [h] | Tmax [3] [h] | also measured
C=CC(=O)Nc1cc(N2CCN(CC)C3(CC3)C2)ccc1Nc1cc(N(C)C(=O)Nc2c(Cl)c(OC)cc(OC)c2Cl)ncn1 [mesylate salt] | significant anti-tumor activity | 93 mm^3 and 93 ± 32 mm^3 | 357.27 | 99.39 | 3.01 | 0.42 | AUC0-t [2]: 8660 ng·h/mL; Cmax [2]: 3740 ng/mL; T1/2 [2]: 1.78 h; Tmax [2]: 0.250 h
C=CC(=O)Nc1cc(N2CCN(CC)C3(CC3)C2)ccc1Nc1cc(N(C)C(=O)Nc2c(Cl)c(OC)cc(OC)c2Cl)ncn1 [Free base, N-(2-((6-(3-(2,6-dichloro-3,5-dimethoxyphenyl)-1-methylureido)pyrimidin-4-yl)amino)-5-(4-ethyl-4,7-diazaspiro[2.5]octane-7-yl)phenyl) acrylamide] | significant anti-tumor activity | – | 194.55 | 52.74 | – | 4.00 | IC50 [4]: 0.019 µM; tumor volume (x ± S) ([1]; day 11 after administration, gavage 10 days, 50 mg/kg twice a day (based on formula (I)), sorafenib 30 mg/kg once a day, listed as compound as represented by formula): 314 ± 72 mm^3; tumor volume (x ± S) ([1]; day 11 after administration, gavage 10 days, 50 mg/kg twice a day (based on formula (I)), sorafenib 30 mg/kg once a day, listed as compound as represented by formula (I)): 314 mm^3; half-life ([3]; SD, rat, po, 20 mg/kg): 2.15 h
C=CC(=O)Nc1cc(N2CCN(CC)C3(CC3)C2)ccc1Nc1cc(N(C)C(=O)Nc2c(Cl)c(OC)cc(OC)c2Cl)ncn1 [ethanesulfonate salt] | significant anti-tumor activity | 121 mm^3 and 121 ± 17 mm^3 | 410.81 | 141.81 | 2.37 | 1.50 | AUC0-t ([2]; ICR, mouse, po, 75 mg/kg, read-out: AUC0-t): 9660 ng·h/mL; Cmax ([2]; ICR, mouse, po, 75 mg/kg, read-out: Cmax): 4110 ng/mL; Tmax ([2]; ICR, mouse, po, 75 mg/kg, read-out: Tmax): 0.5 h
CNC(=O)c1cc(Oc2ccc(NC(=O)Nc3ccc(Cl)c(C(F)(F)F)c3)cc2)ccn1 [Sorafenib, reference compound] | – | 1238 ± 199 mm^3 | – | – | – | – | T/C (%) relative tumor proliferation rate [1, 5]: 57.10%; TGI (%) relative tumor growth inhibition [1, 5]: 42.90%; relative tumor volume (x ± S) [1, 5]: 5.50 ± 0.22; TGI (%) relative tumor growth inhibition [1, 6]: 42.9%; tumor volume (x ± S) [1, 6]: 1238 mm^3
